Measured values: patent publication US20100324072A1, “PYRROLOPYRIDINE DERIVATIVES AND THEIR USE AS BACE INHIBITORS” (ASTRAZENECA AB, priority 2007, published 2010)

Molecular target: T1, human β-Secretase (Homo sapiens, UniProt P56817)
T1 construct: The soluble part of the human β-Secretase (AA 1-AA 460) was cloned; Fc domain of IgG1 (C); made in house
Experiment: TR-FRET assay (β-secretase enzyme cleavage of (Europium)CEVNLDAEFK(Qsy7) substrate)
Format: biochemical
Settings: sBACE-Fc 2.7 μg/ml, substrate 100 nM, pH 4.5, 15 min at RT
Protocol: The enzyme used in the IGEN Cleavage-, Fluorescent-, TR-FRET- and BiaCore assays is described as follows:
The soluble part of the human β-Secretase (AA 1-AA 460) was cloned into the ASP2-Fc10-1-IRES-GFP-neoK mammalian expression vector. The gene was fused to the Fc domain of IgG1 (affinity tag) and stably cloned into HEK 293 cells. Purified sBACE-Fc is stored in Tris buffer, pH 9.2 and has a purity of 95%.
Enzyme was diluted to 6 μg/mL and the substrate (Europium)CEVNLDAEFK(Qsy7) to 200 nM in reaction buffer (NaAcetate, chaps, triton x-100, EDTA pH 4.5). Compounds were diluted to the desired concentration in dimethyl sulfoxide (final dimethyl sulfoxide concentration in assay is 5%). The assay was done in a Costar 384 well round bottom, low volume, non-binding surface plate (Corning #3676). Enzyme (9 μL) and 1 μL of compound in dimethyl sulfoxide was added to the plate, mixed and pre-incubated for 10 min. Substrate (10 μL) was added and the reaction proceeded in the dark for 15 min at RT. The reaction was stopped with the addition of 7 μl, NaAcetate, pH 9. The fluorescence of the product was measured on a Victor II plate reader with an excitation wavelength of 340 nm and an emission wavelength of 615 nm. The final concentration of the enzyme was 2.7 μg/ml and the final concentration of the substrate was 100 nM (Km of 290 nM). […]

T1 sequence (P56817 22-460): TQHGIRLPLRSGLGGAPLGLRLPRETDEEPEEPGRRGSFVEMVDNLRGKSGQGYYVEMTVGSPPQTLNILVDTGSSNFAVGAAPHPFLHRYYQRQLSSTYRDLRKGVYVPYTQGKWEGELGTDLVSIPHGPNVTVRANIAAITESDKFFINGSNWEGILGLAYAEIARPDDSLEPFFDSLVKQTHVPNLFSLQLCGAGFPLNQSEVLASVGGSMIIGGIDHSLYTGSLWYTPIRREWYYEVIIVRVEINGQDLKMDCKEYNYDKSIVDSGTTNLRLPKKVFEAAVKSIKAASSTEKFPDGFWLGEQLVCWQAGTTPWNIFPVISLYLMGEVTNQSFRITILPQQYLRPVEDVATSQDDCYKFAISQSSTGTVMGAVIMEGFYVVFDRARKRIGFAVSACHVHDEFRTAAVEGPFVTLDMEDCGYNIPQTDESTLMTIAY

Ki: 88 nM
SMILES: COc1cccc(-c2cccc(C3(c4ccncc4)N=C(N)c4cccnc43)c2)c1F (stereo not shown) [Example 23, 7-(2′-Fluoro-3′-methoxybiphenyl-3-yl)-7-pyridin-4-yl-7H-pyrrolo[3,4-b]pyridin-5-amine]
